Measurements published in US20240207292A1, “BORONIC ACID COMPOUNDS, COMPOSITIONS AND METHODS” (Trustees of Tufts College, priority 2021, published 2024).

Test: Stability of 6555 with sulfur-containing and other stabilizers, 50 mM AAPH at 80° C. for 30 mins (Tables 7-9)
Type: physicochemical
Conditions: for 6555 Remaining (%): 50 mM AAPH, 80° C., 0.5 hr, (+) mode; for 6555 Remain (%): AAPH 80° C. 30 mins
Text: The effect of specified sulfur-containing compounds and other stabilizer compounds (including non-sulfur-containing stabilizer compounds) and mixtures of sulfur-containing compounds and non-sulfur-containing stabilizer compounds with the boronic acid compound 6555 (structure shown above) at various pH values.

C[C@@H](NC(=O)c1ccc(CNC(=O)CN2CCN(CC(=O)O)CCN(CC(=O)O)CCN(CC(=O)O)CC2)cc1)C(=O)N1CCC[C@H]1B(O)O [compound 6555, DOTA-aminomethyl-Bz-D-Ala-boroPro]
6555 Remaining (%) (NAM 5 mM, sodium metabisulfite 5 mM, pH 4.3): 88.8%
6555 Remaining (%) (NAM 25 mM, pH 4.0): 85.9%
6555 Remaining (%) (no stabilizer, pH 4.6): 55.8%
6555 Remaining (%) (sodium ascorbate 2.5 mM, sodium gentisate 1 mM, Acetone sodium bisulfite (2.5 mM), pH 4.6): 73.1%
6555 Remaining (%) (sodium ascorbate 2.5 mM, sodium gentisate 1 mM, Acetone sodium bisulfite (25 mM), pH 4.6): 94.0%
6555 Remaining (%) (sodium ascorbate 2.5 mM, sodium gentisate 1 mM, D-mannitol (25 mM), pH 4.5): 15.5%
6555 Remaining (%) (sodium ascorbate 2.5 mM, sodium gentisate 1 mM, Disodium hydrosulfite (25 mM), pH 4.3): 94.1%
6555 Remaining (%) (sodium ascorbate 2.5 mM, sodium gentisate 1 mM, MSM(dimethyl sulfone) (25 mM), pH 4.5): 8.2%
6555 Remaining (%) (sodium ascorbate 2.5 mM, sodium gentisate 1 mM, N-Acetyl-L-phenylalanine (25 mM), pH 4.0): 20.1%
6555 Remaining (%) (sodium ascorbate 2.5 mM, sodium gentisate 1 mM, N-Acetyl-L-tyrosine (25 mM), pH 4.0): 13.6%
6555 Remaining (%) (sodium ascorbate 2.5 mM, sodium gentisate 1 mM, NAC (25 mM), pH 4.1): 31.4%
6555 Remaining (%) (sodium ascorbate 2.5 mM, sodium gentisate 1 mM, NAM 2.5 mM, sodium metabisulfite 2.5 mM, pH 4.5): 94.8%
6555 Remaining (%) (sodium ascorbate 2.5 mM, sodium gentisate 1 mM, NAM 2.5 mM, pH 4.5): 53.3%
6555 Remaining (%) (sodium ascorbate 2.5 mM, sodium gentisate 1 mM, NAM 10 mM, sodium metabisulfite 2.5 mM, pH 4.0): 93.2%
6555 Remaining (%) (sodium ascorbate 2.5 mM, sodium gentisate 1 mM, NAM 25 mM, sodium metabisulfite 2.5 mM, pH 4.0): 92.2%
6555 Remaining (%) (sodium ascorbate 2.5 mM, sodium gentisate 1 mM, NAM 25 mM, pH 4.0): 90.8%
6555 Remaining (%) (sodium ascorbate 2.5 mM, sodium gentisate 1 mM, Potassium metabisulfite (2.5 mM), pH 4.4): 93.7%
6555 Remaining (%) (sodium ascorbate 2.5 mM, sodium gentisate 1 mM, Potassium metabisulfite (25 mM), pH 4.5): 94.1%
6555 Remaining (%) (sodium ascorbate 2.5 mM, sodium gentisate 1 mM, Sodium L-Glutamate monohydrate (concentration cut off), pH 4.7): 8.2%
6555 Remaining (%) (sodium ascorbate 2.5 mM, sodium gentisate 1 mM, Sodium formaldehydesulfoxylate di (concentration cut off), pH 4.4): 91.7%
6555 Remaining (%) (sodium ascorbate 2.5 mM, sodium gentisate 1 mM, Sodium formaldehydesulfoxylate di (concentration cut off, second entry), pH 4.5): 58.0%
6555 Remaining (%) (sodium ascorbate 2.5 mM, sodium gentisate 1 mM, Sodium sulfite (2.5 mM), pH 4.5): 67.9%
6555 Remaining (%) (sodium ascorbate 2.5 mM, sodium gentisate 1 mM, Sodium sulfite (5 mM), pH 4.6): 90.3%
6555 Remaining (%) (sodium ascorbate 2.5 mM, sodium gentisate 1 mM, Sodium sulfite (10 mM), pH 4.8): 93.8%
6555 Remaining (%) (sodium ascorbate 2.5 mM, sodium gentisate 1 mM, Sodium sulfite (25 mM), pH 5.1): 94.1%
6555 Remaining (%) (sodium ascorbate 2.5 mM, sodium gentisate 1 mM, Thiourea (25 mM), pH 4.5): 84.1%
6555 Remaining (%) (sodium ascorbate 2.5 mM, sodium gentisate 1 mM, disodium hydrosulfite 1 mM, pH 4.5): 47.4%
6555 Remaining (%) (sodium ascorbate 2.5 mM, sodium gentisate 1 mM, disodium hydrosulfite 2.5 mM, pH 4.4): 91.7%
6555 Remaining (%) (sodium ascorbate 2.5 mM, sodium gentisate 1 mM, disodium hydrosulfite 5.0 mM, pH 4.5): 94.3%
6555 Remaining (%) (sodium ascorbate 2.5 mM, sodium gentisate 1 mM, disodium hydrosulfite 10.0 mM, pH 4.5): 94.1%
6555 Remaining (%) (sodium ascorbate 2.5 mM, sodium gentisate 1 mM, disodium hydrosulfite 40.0 mM, pH 4.0): 94.6%
6555 Remaining (%) (sodium ascorbate 2.5 mM, sodium gentisate 1 mM, sodium metabisulfite 1 mM, pH 4.5): 71.1%
6555 Remaining (%) (sodium ascorbate 2.5 mM, sodium gentisate 1 mM, sodium metabisulfite 2.5 mM, pH 4.5): 93.4%
6555 Remaining (%) (sodium ascorbate 2.5 mM, sodium gentisate 1 mM, sodium metabisulfite 25 mM, pH 4.4): 93.8%
6555 Remaining (%) (sodium ascorbate 2.5 mM, sodium gentisate 1 mM, pH 4.6): 30.8%
6555 Remaining (%) (sodium ascorbate 2.5 mM, sodium gentisate 1 mM, pH 5.1): 16.7%
6555 Remaining (%) (sodium ascorbate 5 mM, sodium gentisate 2 mM, NAM 5 mM, disodium hydrosulfite 5 mM, pH 4.5): 95.7%
6555 Remaining (%) (sodium ascorbate 5 mM, sodium gentisate 2 mM, NAM 5 mM, sodium metabisulfite 5 mM, pH 4.5): 95.8%
6555 Remaining (%) (sodium ascorbate 5 mM, sodium gentisate 2 mM, NAM 5 mM, pH 4.5): 66.5%
6555 Remaining (%) (sodium ascorbate 5 mM, sodium gentisate 2 mM, sodium metabisulfite 5 mM, disodium hydrosulfite 5 mM, pH 4.4): 95.3%
6555 Remaining (%) (sodium ascorbate 5 mM, sodium gentisate 2 mM, sodium metabisulfite 5 mM, pH 4.5): 95.6%
6555 Remain (%) (Sodium ascorbate (2.5 mM) +, Sodium gentisate (1 mM) +, Stabilizer (2.5 mM) Sodium sulfite, pH 5.1, SID 90517): 94.1%
6555 Remain (%) (ascorbate (2.5 mM) +, gentisate (1 mM) +, Sodium hydrosulfite 2.5 mM, pH 4.4, SID 90537): 91.7%
6555 Remain (%) (ascorbate (2.5 mM) +, gentisate (1 mM) +, Sodium hydrosulfite 5.0 mM, pH 4.5, SID 90542): 94.3%
6555 Remain (%) (ascorbate (2.5 mM) +, gentisate (1 mM) +, Sodium hydrosulfite 10.0 mM, pH 4.5, SID 90532): 94.1%
6555 Remain (%) (ascorbate (2.5 mM) +, gentisate (1 mM) +, Sodium hydrosulfite 25.0 mM, pH 4.3, SID 90539): 94.1%
6555 Remain (%) (ascorbate (2.5 mM) +, gentisate (1 mM) +, Sodium hydrosulfite 40.00 mM, pH 4.0, SID 90538): 94.6%
6555 Remain (%) (ascorbate (2.5 mM) +, gentisate (1 mM) +, Sodium sulfite 2.5 mM, pH 4.5, SID 90616): 67.9%
